# Test results reported in patent US9334498B2, “Methods and compositions for modulating MIR-204 activity” (UAB Research Foundation, priority 2012, dated 2016).
# Oligonucleotides are written 5' to 3', each unit as a sugar letter and its base; * is a phosphorothioate linkage, no mark a phosphodiester; rarer units and linkages stand in square brackets, end groups in braces. Plain capitals give the bases only. {Chol} = cholesterol; m = 2'-O-methyl
# Columns and labels:
# STAT3 = target: T1, STAT3 (Rattus norvegicus, UniProt P52631); assay: STAT3 inhibition in INS-1 cells, expression by qRT-PCR; type: cell-based
# T1 construct: endogenous in cells; host or cells: INS-1 rat beta cells
# T1 sequence (P52631 whole entry): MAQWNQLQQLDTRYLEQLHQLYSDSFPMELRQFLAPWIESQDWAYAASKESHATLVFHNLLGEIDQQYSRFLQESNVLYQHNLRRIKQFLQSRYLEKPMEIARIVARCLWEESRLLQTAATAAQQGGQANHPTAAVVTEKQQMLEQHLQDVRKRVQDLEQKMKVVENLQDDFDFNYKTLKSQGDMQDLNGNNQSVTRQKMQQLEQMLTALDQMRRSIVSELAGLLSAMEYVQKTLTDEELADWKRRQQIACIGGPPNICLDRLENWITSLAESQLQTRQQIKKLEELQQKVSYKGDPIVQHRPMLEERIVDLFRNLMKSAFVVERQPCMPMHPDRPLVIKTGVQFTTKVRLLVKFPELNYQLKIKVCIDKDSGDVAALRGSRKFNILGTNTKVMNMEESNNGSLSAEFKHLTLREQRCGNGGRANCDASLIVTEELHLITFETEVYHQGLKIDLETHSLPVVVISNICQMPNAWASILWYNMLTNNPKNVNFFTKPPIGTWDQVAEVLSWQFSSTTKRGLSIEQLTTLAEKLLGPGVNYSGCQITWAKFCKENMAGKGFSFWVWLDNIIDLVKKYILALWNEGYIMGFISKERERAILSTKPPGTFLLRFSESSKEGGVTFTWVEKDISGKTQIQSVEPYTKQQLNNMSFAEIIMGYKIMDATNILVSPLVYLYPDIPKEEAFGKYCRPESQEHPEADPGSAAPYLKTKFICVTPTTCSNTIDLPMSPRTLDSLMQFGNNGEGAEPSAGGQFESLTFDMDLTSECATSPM
# Experimental: FIG. 18. Effects of TXNIP and diabetes on beta cell miR-204 expression. Expression of miR-204 was assessed by qRT-PCR in (A) INS-1 cells overexpressing TXNIP (INS-TXNIP) and control (INS-LacZ) cells, (B) primary islets of TXNIP-deficient HcB-19 and C3H control mice, and (C) primary islets of beta-cell-specific TXNIP knockout bTKO and lox/lox control mice. (D) TXNIP effects on STAT3 activation were determined by immunoblotting for phospho-STAT3 (p-STAT3) and total STAT3 in INS-TXNIP and control INS-LacZ cells. (E) To determine the role of STAT3 in miR-204 expression, INS-1 cells were incubated with the STAT3 inhibitor STATTIC (2 μM for 48 hr) or vehicle (DMSO) and the expression of miR-204 was detected by qRT-PCR. (F) To assess the effect of diabetes on miR-204 expression, primary islets of 10-week old, male, diabetic ob/ob or lean control mice were analyzed by qRT-PCR. Bars represent means±SEM; n=3-5 independent experiments.
# miR-204 is encoded within intron 6 of the TRPM3 gene (transient receptor potential melastatin 3, a cation-selective channel) and is transcribed in the same direction as TRPM3^30. Since miR-204 and TRPM3 are therefore sharing the same promoter, we deduced that, if TXNIP were to regulate miR-204 expression at the transcriptional level, TRPM3 would be co-regulated in parallel. […]
# miR-204 = assay: Antagomir pilot studies in vivo: islet miR-204 expression; design: species or system mouse; conditions: after just one injection
# Experimental: miR-204 knock down (in vitro and in vivo). We will utilize the miR204 inhibitor oligo (IN-320505-05; meridian Hairpin Inhibitor rno-miR-204) or scrambled control (IN-001005-01-05) (Dharmacon) to perform transfection experiments in INS-1 cells and primary human islets as mentioned above and described herein. This microRNA inhibitor oligonucleotide specifically binds to miR-204 and targets it for degradation. In fact, 72 h after transfection we saw a significant ˜5-fold reduction in miR-204 expression, but no effect on other microRNAs (data not shown) confirming the effectiveness and specificity of this approach. […] Therefore, after diabetes has been confirmed by blood glucose readings over 250 mg/dL on two consecutive days, these obese and diabetic male mice and their lean, non-diabetic littermates will again be divided into three treatment groups and will receive antagomir, mutant antagomir or saline injections as described for the wild-type mice. In all mice, blood glucose levels will be assessed daily (by glucometer) and serum will be collected before injection and prior to sacrifice for measurement of insulin levels (by ELISA)(17). […]
Molecule,TRPM3 (host gene) expression (STAT3),miR-204 expression (STAT3; 2 μM for 48 hr vs DMSO),reduction in islet miR-204 expression (miR-204) [fold]
O=[N+]([O-])c1ccc2c(c1)S(=O)(=O)C=C2 [STATTIC],significantly induced,significantly induced,–
5′-mA(*)mG(*)mGmCmAmUmAmGmGmAmUmGmAmCmAmAmAmG mG(*)mG(*)mA(*) mA(*)-3Chl (antisense mA*mG*mGmCmAmUmAmGmGmAmUmGmAmCmAmAmAmGmG*mG*mA*mA*{Chol}) [miR-204 antagomir],–,–,~2
